Molecules are shown by their SMILES.

Series [1] in a line: mTHPC concentration in tumor, skin and plasma of mice after injection (Trial 1 mTHPC, Trial 2 LMF). In kind it is in vivo, mouse. The procedure: FIG. 1—Graph showing meta-tetra(hydroxyphenyl)chlorin (“mTHPC”) concentration in tumor, skin and blood of a mouse after a dose of 10 μg mTHPC.
FIG. 2—Graph showing mTHPC concentration in tumor, skin and blood of a mouse after a dose of 5 μg mTHPC solubilized in Lipofundin MCT 10% (“LMF”).
This formulation is abbreviated “LMF”.

The nature of series [2]: Skin fluorescence in a dog after simultaneous injection of mTHPC and Lipofundin. The series is classed as in vivo. Conditions: mTHPC diluted in Lipofundin to 0.75 mg/ml, simultaneous bolus injection. How it is done: FIG. 4—Graph of results of skin fluorescence in sarcoma and skin of a dog after simultaneous injection of mTHPC and Lipofundin.
In this example, a standard mTHPC solution, having 4 mg of mTHPC per ml of solution (4 mg/ml), was diluted in Lipofundin until the concentration of mTHPC in the mixture is 0.75 mg/ml. The mixture was then injected, thus both the photosensitizer and phospholipids were simultaneously injected. […] As is shown in FIG. 4, after only 6 hours, the fluorescence of the skin was substantially the same as that measured prior to injection, thus the skin was no longer photosensitive after this short amount of time.

Series [3] in a line: Clinical monitoring of Foscan skin fluorescence by OBS in patients with basal-cell cancer after Foscan PDT. Conditions: ten patients. In kind it is in vivo, human. How it is done:
Ten patients (6 male, 4 female) with basal-cell cancer (BCC) of the skin were treated with Foscan PDT course having a drug dose of 0.05 mg/kg, a drug-light interval 48 hours, and a 50 J/cm^2 light dose. Immediately after the laser treatment these patients were given intravenous drop infusions of 10% Lipofundin (250 ml). Patients were administered a second infusion of 10% Lipofundin solution (250 ml) the next day.
A group of ten patients (6 male, 4 female) with BCC of the skin, were administered Foscan PDT course having a drug dose of 0.05 mg/kg, a drug-light interval 48 hours, and a 50 J/cm^2 light dose. No 10% Lipofundin infusions were administered post-irradiation.
A computer-based spectrometer Optical Biopsy System (OBS) specially tuned for clinical monitoring of skin fluorescence was used to detect and measure skin fluorescence. The OBS uses a 400 nm diode laser to induce FOSCAN fluorescence (wavelength 655 nm) which is then detected and measured by the OBS spectrometer.
Fluorescence measurements were performed in intact skin of the cheek at certain time points after Foscan injection. Fluorescence monitoring began 2 days after Foscan administration and was continued for 7 weeks following Foscan administration. All measurements were performed by using contact tip (FD-1 Handstuck). Each fluorescence measurement was performed 4 times, all results were recorded, and the average value was used for further analysis.

Take `Oc1cccc(-c2c3nc(c(-c4cccc(O)c4)c4ccc([nH]4)c(-c4cccc(O)c4)c4nc(c(-c5cccc(O)c5)c5ccc2[nH]5)CC4)C=C3)c1` [mTHPC, meta-tetra(hydroxyphenyl)chlorin]: the “time of peak tumor concentration of mTHPC” value in series [1] (Trial 1: mTHPC 10 μg per mouse, Trial 2: LMF, 5 μg mTHPC per mouse solubilized in Lipofundin) was determined as 24 h. Also, the “skin concentration in Trial 1 relative to skin concentration after LMF injection” value in series [1] (after 24 hours, Trial 1 dose twice that of Trial 2) is on record as “almost four times”. The “tumor concentration in Trial 1 after 12 hours relative to peak tumor concentration in Trial 2” value in series [1] (mTHPC 10 μg per mouse, 12 hours, versus LMF peak) is recorded as “⅔”. The concentration at 24 h in series [1] (skin, other: injection (site not specified), Trial 1, mTHPC 10 μg per mouse, after 24 hours) is ~260 ng/g. In addition, in series [2], the “skin fluorescence after injection” value is given as “rapid decrease in skin fluorescence”. Further, the “time after which skin fluorescence was substantially the same as prior to injection” value in series [2] amounted to 6 h. Besides, the “Number of patients exhibiting no detectable skin fluorescence as detected by OBS” value in series [3] (7 days after Foscan application, Control Group: Foscan 0.05 mg/kg PDT, no Lipofundin infusions) is 0; in series [3] (7 days after Foscan application, Experimental Group: Foscan 0.05 mg/kg PDT plus two 250 ml 10% Lipofundin infusions after irradiation), 0; in series [3] (14 days after Foscan application, Control Group: Foscan 0.05 mg/kg PDT, no Lipofundin infusions), 0; in series [3] (14 days after Foscan application, Experimental Group: Foscan 0.05 mg/kg PDT plus two 250 ml 10% Lipofundin infusions after irradiation), 2; in series [3] (21 days after Foscan application, Control Group: Foscan 0.05 mg/kg PDT, no Lipofundin infusions) it was 2; in series [3] (21 days after Foscan application, Experimental Group: Foscan 0.05 mg/kg PDT plus two 250 ml 10% Lipofundin infusions after irradiation), 5. Further, the “Number of patients exhibiting no detectable skin fluorescence as detected by OBS” value in series [3] (28 days after Foscan application, Control Group: Foscan 0.05 mg/kg PDT, no Lipofundin infusions) is 7; in series [3] (28 days after Foscan application, Experimental Group: Foscan 0.05 mg/kg PDT plus two 250 ml 10% Lipofundin infusions after irradiation), 10; in series [3] (35 days after Foscan application, Control Group: Foscan 0.05 mg/kg PDT, no Lipofundin infusions), 10; in series [3] (35 days after Foscan application, Experimental Group: Foscan 0.05 mg/kg PDT plus two 250 ml 10% Lipofundin infusions after irradiation), 10.
